Earlier results, collected in patent US5578629A, “Benzamide-containing inhibitors of farnesyl-protein transferase” (Merck & Co., Inc., priority 1995, dated 1996).

Tested on: farnesyl-protein transferase
Conditions: via inhibition of HMG-CoA reductase

Row | Structure (SMILES) | Indirect inhibition of farnesyl-protein transferase in vivo
1 | CC[C@H](C)C(=O)O[C@H]1CCC=C2C=C[C@H](C)[C@H](CC[C@@H]3C[C@@H](O)CC(=O)O3)[C@H]21 [compactin] | Indirect inhibition of farnesyl-protein transferase in vivo has been demonstrated
2 | CC[C@H](C)C(=O)O[C@H]1C[C@@H](C)C=C2C=C[C@H](C)[C@H](CC[C@@H]3C[C@@H](O)CC(=O)O3)[C@H]21 [lovastatin] | Indirect inhibition of farnesyl-protein transferase in vivo has been demonstrated
